# Results taken from US6825209B2, “Compounds having unique CB1 receptor binding selectivity and methods for their production and use” (Research Triangle Institute, priority 2002, dated 2004).
# “And” between values parts separate entries of the source, which are not always exact repeats. Equal values may be shown once. Read-outs that look alike come from different tables or passages of the source.
# Experiments:
# CB1 receptor = biological target: T1, CB1 receptor (Rattus norvegicus, UniProt P20272); experiment: Radioligand displacement in whole rat brain (CB1) membrane preparations; format: binding; conditions: Tables 1 and 2
# T1 construct: Whole rat brains or dissected regions from live CD rats; tissue Charles River or Pel-Freez Biologicals; host or cells: whole rat brain (CD rats), P2 membrane
# T1 sequence (P20272 whole entry): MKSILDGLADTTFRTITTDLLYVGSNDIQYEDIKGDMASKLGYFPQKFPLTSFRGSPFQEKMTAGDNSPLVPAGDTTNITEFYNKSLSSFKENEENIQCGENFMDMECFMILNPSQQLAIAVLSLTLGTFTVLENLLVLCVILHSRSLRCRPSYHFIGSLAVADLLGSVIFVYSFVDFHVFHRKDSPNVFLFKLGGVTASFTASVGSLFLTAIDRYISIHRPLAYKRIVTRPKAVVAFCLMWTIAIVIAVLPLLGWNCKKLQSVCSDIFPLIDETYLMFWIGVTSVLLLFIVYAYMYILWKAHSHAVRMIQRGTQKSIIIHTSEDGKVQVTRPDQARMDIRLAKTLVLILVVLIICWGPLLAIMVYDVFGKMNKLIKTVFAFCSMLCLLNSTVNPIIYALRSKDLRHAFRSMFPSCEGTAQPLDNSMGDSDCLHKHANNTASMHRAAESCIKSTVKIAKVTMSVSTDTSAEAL
# Outline: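 Washed P2 membranes from whole rat brain (ca. 0.2 mg/mL) in 50 mM Tris.HCl, 1 mM EDTA, 3 mM MgCl2, pH 7.4 were incubated with radioligand and compound for 1 h at 30 °C, then filtered. IC50 values came from one- or two-site nonlinear fits and were converted to Ki by Cheng-Prusoff. Duplicates were run across 3–6 experiments.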
# cannabinoid receptors = biological target: T2, cannabinoid receptors (Mus musculus, UniProt P47746); experiment: Mouse vas deferens tissue assay (WIN55212-2 as agonist); conditions: for % Inverse Effect: in the absence of WIN55212-2; for Dextral Shift: shift of the WIN55212-2 dose response curve
# T2 construct: mediated by cannabinoid receptors located on prejunctional neurones; from tissue; host or cells: mouse isolated vas deferens
# T2 sequence (P47746 whole entry): as the sequence (P20272 whole entry) above, with E95D counted along it
# From the text: Pharmacological characterization in isolated mouse vas deferens.
# Introduction. The mouse isolated vas deferens can be used to determine both the potency and efficacy (maximum degree of inhibition produced) of cannabinoid receptor agonists. Because of its high sensitivity, this assay usually requires only microgram quantities of test material.
# The inhibitory effect of cannabinoids on electrically evoked contractions is thought to be mediated by cannabinoid receptors located on prejunctional neurones rather than on the smooth muscle.
# Experimental design. Isolated mouse vasa deferentia were used to determine the potency and efficacy of test compounds as inhibitors of electrically evoked contractions. […] Ability to antagonize was expressed in terms of the association constant (Kb) for the forward reaction between antagonist and cannabinoid receptors.
# Methods. […] Electrical field stimulation was between platinum electrodes located at the upper and lower ends of each bath. The stimuli were generated by a Grass S48 stimulator, then amplified (Med-Lab channel attenuator) and finally divided to yield separate outputs to four organ baths (Med-Lab Stimusplitter). All contractions were recorded isometrically.
# Concentration-response curves were constructed cumulatively.
# CB1 versus CB2 receptors = experiment: Relative selectivity of the analogs for CB1 versus CB2 receptors; conditions: CB1 versus CB2 binding, Tables 1, 6 and 7
# From the text: Human CB2 receptor affinity. The relative selectivity of the analogs for CB1 versus CB2 receptors varied modestly regardless of the structural modifications examined to date.
# [1] = read-out: Ki, displacement of 3H-CP55940, whole rat brain membranes, radioligand 3H-CP55940
# [2] = read-out: Ki, displacement of 3H-SR141716A, whole rat brain membranes, radioligand 3H-SR141716A
# [3] = whole rat brain membranes, radioligand 3H-CP55940
# [4] = whole rat brain membranes, radioligand 3H-SR141716A
# [5] = isolated mouse vas deferens, WIN55212-2 as agonist, Schild equation, read-out: Kb
# [6] = Ki, displacement of 3H-WIN55212-2, whole rat brain membranes, radioligand 3H-WIN55212-2
# [7] = whole rat brain membranes, radioligand 3H-WIN55212-2
Compound,Ki (CB1 receptor; [1]),Ki (CB1 receptor; [2]),"Max. Disp. %, 3H-CP55940 (CB1 receptor; [3])","Max. Disp. %, 3H-SR141716A (CB1 receptor; [4])",Kb (cannabinoid receptors; [5]),% Inverse Effect (cannabinoid receptors; isolated mouse vas deferens),Dextral Shift (cannabinoid receptors; isolated mouse vas deferens),Ki (CB1 receptor; [6]),"Max. Disp. %, 3H-WIN55212-2 (CB1 receptor; [7])",CB1 selectivity (CB1 versus CB2) (CB1 versus CB2 receptors),"Ki (CB1 receptor; Ki, displacement of 3H-CP55940, whole rat brain membranes, radioligand 3H-CP55940)","Ki (CB1 receptor; Ki, displacement of 3H-SR141716A, whole rat brain membranes, radioligand 3H-SR141716A)",Kb (cannabinoid receptors),"Kb (cannabinoid receptors; isolated mouse vas deferens, WIN55212-2 as agonist, Schild equation)","Dextral Shift (cannabinoid receptors; isolated mouse vas deferens, listed as heptyl analog)"
Cc1c(C(=O)NN2CCOCC2)nn(-c2ccc(Cl)cc2Cl)c1-c1ccc(Cl)cc1 [MF9725-33D],22.9 nM,21 nM,96.2%,100%,12.5 nM,82.5%,26.3,,,,,,,,
CCCCNC(=O)c1nn(-c2ccc(Cl)cc2Cl)c(-c2ccc(Cl)cc2)c1C [MF9725-64-17],13.4 nM,12.8 nM,91.9%,100%,21.2 nM,28.2%,no effect,32.8 nM,90.8%,,,,,,
CCCCCCCNC(=O)c1nn(-c2ccc(Cl)cc2Cl)c(-c2ccc(Cl)cc2)c1C [MF9725-133-25],,,81.7%,97.9%,,50.6% and 37.8%,,28.8 nM,69.6%,,46.2 nM,19 nM,83.9 nM,no effect,failed to produce an effect

# Second part, led by results:
Ki (CB1 receptor; [1]),Ki (CB1 receptor; [2]),"Max. Disp. %, 3H-CP55940 (CB1 receptor; [3])","Max. Disp. %, 3H-SR141716A (CB1 receptor; [4])",Kb (cannabinoid receptors; [5]),% Inverse Effect (cannabinoid receptors; isolated mouse vas deferens),Dextral Shift (cannabinoid receptors; isolated mouse vas deferens),Ki (CB1 receptor; [6]),"Max. Disp. %, 3H-WIN55212-2 (CB1 receptor; [7])",CB1 selectivity (CB1 versus CB2) (CB1 versus CB2 receptors),Compound,"Ki (CB1 receptor; Ki, displacement of 3H-CP55940, whole rat brain membranes, radioligand 3H-CP55940)","Ki (CB1 receptor; Ki, displacement of 3H-SR141716A, whole rat brain membranes, radioligand 3H-SR141716A)",Kb (cannabinoid receptors),"Kb (cannabinoid receptors; isolated mouse vas deferens, WIN55212-2 as agonist, Schild equation)","Dextral Shift (cannabinoid receptors; isolated mouse vas deferens, listed as heptyl analog)"
29.4 nM,12.9 nM,88.3%,100%,,,,36.1 nM,90.6%,,Cc1c(C(=O)NC(C)C)nn(-c2ccc(Cl)cc2Cl)c1-c1ccc(Cl)cc1 [MF9725-65-11],,,,,
2.46 nM,1.07 nM,96.1%,100%,1.2 nM,55.5%,26.7,2.23 nM,92.6%,93 fold,Cc1c(C(=O)NC2CCCCC2)nn(-c2ccc(Cl)cc2Cl)c1-c1ccc(Cl)cc1 [MF9725-66-11],,,,,
11.5 nM,9.22 nM,96.7%,100%,,,,46.4 nM,90.9%,,Cc1c(C(=O)NCC(C)C)nn(-c2ccc(Cl)cc2Cl)c1-c1ccc(Cl)cc1 [MF9725-68-10],,,,,
18.2 nM,10.7 nM,87.3%,98.6%,15.4 nM,30.1%,no effect,16.6 nM,77.9%,,CCCCCCNC(=O)c1nn(-c2ccc(Cl)cc2Cl)c(-c2ccc(Cl)cc2)c1C [MF9725-132-25],,,,,
